# Test results as given in the METLIN SMRT retention time set (Domingo-Almenara et al. 2019).
# Assay: gradient 5% acetonitrile 3 min, to 50% in 2 min, to 85% in 15 min, held 3 min, 100 µL/min
# Details: column: Zorbax Extend-C18 2.1 x 50 mm; eluents: water / acetonitrile, 0.1% formic acid
# Procedure, shortened: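 Over 3 months, pure standards in mixtures of ~100 molecules were run by HPLC coupled to a quadrupole time-of-flight mass spectrometer in positive and negative ionization mode. The column was a Zorbax Extend-C18 (2.1 × 50 mm, 1.8 μm) at 100 μL/min, eluted with water and acetonitrile each holding 0.1% formic acid, with 40 μL dead and 900 μL dwell volumes. Retention time was determined from adduct peaks chosen by software and checked manually.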
row,SMILES,RP-LC retention time [s]
1,O=C(Cc1cccs1)N1CCCC1(CO)Cc1ccccc1 (stereo not drawn),853
2,Cc1cc2c(cc1NC(=O)c1cccs1)n(C)c(=O)c(=O)n2C,663
3,Cc1ccc(N(C)C(=O)C2CCCN2S(=O)(=O)c2cc3c(cc2C)NC(=O)C(C)O3)cc1 (stereo not drawn),814
4,COc1ccc(OCCn2c(C(F)(F)F)nc3cc4c(cc32)OCCO4)cc1,985
5,Cc1ccc(Cl)c(NS(=O)(=O)c2cc3c(s2)CCN(C(=O)C2CC2)C3)c1,901
6,COC(=O)c1ccc2c(=O)n(-c3ccc(F)c(Cl)c3)c(N3CCN(c4ccccn4)CC3)nc2c1,762
7,CCOC(=O)c1ccc(NS(=O)(=O)c2cc3n(c2)CCN(C(C)C)C3=O)cc1,777
8,Cc1ccc(S(=O)(=O)NCc2c(-c3ccccc3)nc3sc(C)nn23)cc1,858
9,O=C(CC(=O)N1CCN(c2ccccc2)CC1)Nc1ccc2nc3n(c(=O)c2c1)CCCCC3,720
10,Cc1nnc2n1CCN(C(=O)c1n[nH]c3ccccc13)C2,558
11,N#CC1=C(N)Oc2c(ccc3cccnc23)C1c1ccccc1 (stereo not drawn),768
12,Cn1c(C(=O)Nc2ccc(F)cc2F)cc2c(=O)oc3ccccc3c21,923
13,CCn1cc(C(=O)Nc2cccc(C(C)=O)c2)c2nn(-c3ccccc3)c(=O)c-2c1,808
14,Cc1oc(-c2ccc(Cl)cc2)nc1CN1CCC(C(=O)NCCCN(C)Cc2ccccc2)CC1,615
15,COCCN(CCOC)Cc1c(C)[nH]c2c(C)c(C)ccc2c1=O,605
16,COCc1cc(=O)n(CC(=O)Nc2ccccc2F)c(N2CCOCC2)n1,789
17,CCc1ccc(OCc2nc(CCN(C)C(=O)C3CCCC3)no2)cc1,1020
18,O=C(Cc1nnc(-c2ccc3ncccc3c2)o1)N1CCN(c2ccccc2F)CC1,753
19,COc1ccc(Cl)cc1NC(=O)Cn1nc2cc(-c3ccccc3)nc(C)n2c1=O,974
20,O=c1ccc(N2CCC(NS(=O)(=O)c3cccnc3)C2)nn1CCOc1ccccc1 (stereo not drawn),738
21,COC1CN(c2cccc(F)c2)C12CCN(S(=O)(=O)c1cccc(F)c1)CC2 (stereo not drawn),1200
22,CC(=O)N(CCC1(C(C)C)CCOC(C)(C)C1)Cc1ccccc1 (stereo not drawn),1000

row,SMILES,RP-LC retention time [s]
1,CCc1ccc(NC(=O)c2cc(C(C)C)n3nccc3n2)cc1,1260
2,COc1ccc(N2Cc3cccc(C(=O)O)c3C2=O)cc1,816
3,CCOc1ccccc1NC(=O)C1CCN(c2cnc(N3CCCCC3)nc2)CC1,928
4,O=S(=O)(c1ccccc1)N1CC(c2nc(-c3ccncc3)no2)C1,688
5,CCc1ccc2c(c1)-c1ccccc1S(=O)(=O)N2CC(=O)NCc1cccnc1,684
6,O=S(=O)(c1ccc2c(c1)CCC2)N1CCCC1c1nc(-c2cccc(Cl)c2)no1 (stereo not drawn),1310
7,CC(C)NCCCn1c(Sc2cc3c(cc2I)OCO3)nc2c(N)ncnc21,592
8,N#Cc1ccc(CN2CCC(F)(F)C(COCc3cccnc3)C2)cc1 (stereo not drawn),575
9,COCCNC(=O)C1CCCN(c2cnc3nccnc3c2)C1 (stereo not drawn),588
10,Cc1cccc2c(=O)n(C3CCN(C(=O)Nc4ccc(F)cc4F)CC3)cnc12,770
11,O=C(NC1CCN(c2nnc3ccccn23)CC1)c1cc2c(s1)CCCC2,742
12,CC(C)Cn1c(=O)c(N2CCN(C(=O)NCCc3ccccc3)CC2)nc2ccncc21,668
13,CCc1noc(NC(C)=O)c1-c1ccc(C)c(S(=O)(=O)NC2CCCCCC2)c1,909
14,CC1(C(=O)N2CC=C(c3ccccc3)CC2)CCCCC(=O)N1 (stereo not drawn),736
15,Cc1cccc2c(=O)n(C3CCN(S(=O)(=O)c4ccc(CC(C)C)cc4)CC3)cnc12,1230
16,COc1cccc(-c2ccnc3nc(CCc4ccccc4)nn23)c1,970
17,CCc1onc(C)c1C1CCCN1C(=O)CCc1ccccc1 (stereo not drawn),846
18,COc1ccc(Cl)cc1NC(=O)N1CCC(n2c(C)nc3cccnc32)CC1,682
19,Cc1cc(C)c(CNC(=O)C2CC(=O)N(c3cccc(NC(=O)C4CCC4)c3)C2)c(C)c1 (stereo not drawn),892
20,Cc1ccc(NC(=O)CN2C(=O)C3CCCCN3c3ccc(S(=O)(=O)N4CCCCC4)cc32)cc1 (stereo not drawn),987
21,Cc1ccc(C)c(C(O)Cn2ccn3nc(-c4cccc(Br)c4)cc3c2=O)c1 (stereo not drawn),1160
22,Cc1cc(NC(=O)CSc2nnc(CNC(=O)c3c(F)cccc3Cl)o2)no1,657

row,SMILES,RP-LC retention time [s]
1,O=C(NC1CCCCC1)C1CCN(C(=O)c2ncn3c2COC(c2ccc(Cl)cc2)C3)CC1 (stereo not drawn),844
2,COc1ccc(Cl)cc1NC(=O)C1CC(=O)N(c2cccc(NC(C)=O)c2)C1 (stereo not drawn),740
3,CC1Oc2ccccc2N(CC(=O)NC2CC2)C1=O (stereo not drawn),691
4,CC(C)Oc1ccc(CNC(=O)c2nnc(-c3ccc(S(=O)(=O)N(C)C)cc3)o2)cc1,943
5,Cc1ccc(NC(=O)Cn2nc(N3CCOCC3)c3ccccc3c2=O)cc1F,836
6,COCCCNc1nc(-c2ccc(OC)cc2)nc2ccccc12,690
7,Cc1cc(=O)n(CC(=O)N(C)c2ccccc2)c(N2CCCCC2)n1,669
8,Cc1cc(N2CCCC2)n2nc(CN3CCN(c4ccccc4C)CC3)nc2n1,1210
9,CCOC(=O)c1ccc(NS(=O)(=O)c2cc3n(c2)CCCN(C)C3=O)cc1,711
10,CCc1nc(CN2C(=O)COc3cc(S(=O)(=O)N4CCN(c5ncccn5)CC4)c(C)cc32)no1,871
11,COc1ccccc1CNC1=NCCNC12CCN(S(=O)(=O)c1ccc(F)cc1)CC2,704
12,COc1ccc(-c2nn3c(N4CCN(c5ccccn5)CC4)cc(C)nc3c2C)cc1,615
13,c1cc(CN2CCCCC2c2nncn2CC2CC2)cs1 (stereo not drawn),559
14,CCOc1ccc(NC(=O)c2cc3oc(C)cc3n2Cc2ccc(C)cc2)cc1,1210
15,Cc1ccc(S(=O)(=O)N2CC(=O)N(C3CCCC3)C3(CCCCC3)C2)c(C)c1,1270
16,CCOC(=O)Cc1csc(NC(=O)Cn2nc3c(cc2=O)CCCC3)n1,718
17,Cc1oc2ccn(Cc3cccc(F)c3)c(=O)c2c1C(=O)N(C)Cc1ccccc1,898
18,CCc1ccccc1NC(=O)Cn1nc2cc(C)nc(Nc3ccccc3)n2c1=O,1050
19,CC(C)C(=O)Nc1ccc(S(=O)(=O)NCC(c2ccsc2)N(C)C)cc1 (stereo not drawn),565
20,O=C1NC(C(=O)NCCCn2cccn2)Cn2cccc21 (stereo not drawn),585
21,CCOC(=O)c1ccc(NC(=O)NC2CC(=O)N(C3CCCC3)C2)cc1 (stereo not drawn),768
22,CCc1nc(-c2csc(S(=O)(=O)N3CCCC(C(=O)NC4CCCCCCC4)C3)c2)no1 (stereo not drawn),1150

row,SMILES,RP-LC retention time [s]
1,COc1ccc(NS(=O)(=O)c2cc(-c3[nH]ncc3C(=O)N(C)C)oc2C)cc1Cl,699
2,Cc1noc(C2CC3(CCN(C(=O)C4(c5ccccc5)CC4)CC3)CN2C)n1 (stereo not drawn),631
3,CC(=O)N[C@@H]1CCNC[C@@H]1c1nc(-c2ccccc2)no1,568
4,O=C(NCC(=O)N1CCc2ccccc21)Nc1cccc(Br)c1,894
5,O=C([C@@H]1C[C@H](F)CN1S(=O)(=O)c1ccc(F)c(Cl)c1)N1CCc2ccccc2C1,997
6,O=C(Cc1ccc(Cl)cc1)N1CCN(c2nc(CN3CCOCC3)cs2)CC1,642
7,C=CCN(Cc1nc(-c2ccc(C)cc2)no1)C(=O)Nc1cccc(C)c1,1110
8,Cc1cccc(-c2nnc(SCc3cc(=O)n4c(C)csc4n3)o2)c1,873
9,CSc1cccc2sc(NC(=O)C3CCN(S(C)(=O)=O)CC3)nc12,779
10,O=C(NCCc1ccccc1)Nc1nccn(-c2ccc(F)c(F)c2)c1=O,903
11,O=S(=O)(NC1CCCCCC1)c1ccc(-c2nnc(C3CCC3)o2)o1,996
12,COc1cc(NC(=O)NC(C(=O)N2CCc3ccccc32)C(C)C)cc(OC)c1 (stereo not drawn),982
13,Cc1ccc(-c2csc(NC(=O)CCc3nc(CSc4nc5cc(C)ccc5o4)no3)n2)cc1,1210
14,CC1CCN(S(=O)(=O)c2cc(C(=O)N3CCN(c4cccc(Cl)c4)CC3)n(C)c2)CC1,1120
15,CCOC(=O)c1c(C)oc2ncnc(NCCN3CCCc4ccccc43)c12,1350
16,O=S(=O)(c1ccc(F)cc1)N1CCC2(CC1)NCCN=C2NCc1ccc(Cl)cc1,722
17,Cc1ccc(NC(=O)c2sc3nc[nH]c(=O)c3c2C)c(C)c1,725
18,Cn1cnc(S(=O)(=O)N2CCC(C(=O)NCc3ccccc3)CC2)c1,660
19,COc1ccc(-c2csc(Nc3ncccn3)n2)cc1OC,824
20,COC(=O)C1=CN(c2ccc(Cl)cc2)c2ccc(F)cc2S1(=O)=O,894
21,Cc1nc(C(=O)NCC(=O)O)c(O)c2ccc(Oc3ccccc3)cc12,793
22,Cc1ccc(C(C)NC(=O)C2CCCN(c3cnc4nccnc4c3)C2)c(C)c1 (stereo not drawn),809
